Data from patent US4048431A, “Alkylated derivatives of antibiotic BM123γ” (American Cyanamid Company, priority 1975, dated 1977).

System: Escherichia coli US311
Assay: in vivo protection of mice against lethal Escherichia coli US311 infection (single subcutaneous dose)
Set-up: species or system Escherichia coli US311 in Carworth Farms CF-1 mice
Settings: Carworth Farms CF-1 mice, about 20 gm., infected intraperitoneally with lethal dose of E. coli US311 (10^-3 TSP dilution of 5 hour TSP blood culture)
Method: These new substances show high in vivo antibacterial activity in mice against Escherichia coli US311 when administered by a single subcutaneous dose to groups of Carworth Farms CF-1 mice, weight about 20 gm., infected intraperitoneally with a lethal dose of this bacteria in a 10^- 3 trypticase soy broth TSP dilution of a 5 hour TSP blood culture. In Table VI below is set forth the in vivo activity of typical products of this invention (prepared from the indicated carbonyl reagents) against Escherichia coli US311 in mice. The activity is expressed in terms of the ED50 or the dose in mg./kg. of body weight required to protect 50% of the mice against E. coli.

Row | Substance | ED50 (dose required to protect 50% of the mice against E. coli)
1 | 1-methyloctyl-BM123γ | 0.37 mg./kg. of body weight
2 | methyl-BM123γ | 0.12 mg./kg. of body weight
3 | cyclohexyl-BM123γ | 0.75 mg./kg. of body weight
4 | 1-benzyl-4-piperidyl-BM123γ | 0.18 mg./kg. of body weight
5 | 1-methyl-3-methoxypropen(-2-)yl-BM123γ | > 2.0 mg./kg. of body weight
6 | 3,3-dimethylcyclohexen(-4-)yl-BM123γ | 0.37 mg./kg. of body weight
7 | (2-carboxy-1-carboxymethyl)ethyl-BM123γ | 0.5 mg./kg. of body weight
8 | decahydro-3-methyl-2-naphthyl-BM123γ | 0.37 mg./kg. of body weight
9 | 1-methyl-5-pentenyl-BM123γ | 0.18 mg./kg. of body weight
10 | 1-methyl-3-(N,N-diethylamino)propyl-BM123γ | 0.18 mg./kg. of body weight
11 | 1-methyl-4-hydroxybutyl-BM123γ | 0.18 mg./kg. of body weight
12 | 4-tetrahydrothiopyranyl-BM123γ | 0.38 mg./kg. of body weight
13 | 1-methyl-2-(4-chlorophenyl)ethyl-BM123γ | 0.25 mg./kg. of body weight
14 | 1-methyl-4-(N,N-diethylamino)butyl-BM123γ | 0.5 mg./kg. of body weight
15 | 1-methyl-2-acetylethyl-BM123γ | 1.5 mg./kg. of body weight
16 | 3-tert-pentylcyclopentyl-BM123γ | 0.5 mg./kg. of body weight
17 | adamantyl-2-BM123γ | 0.25 mg./kg. of body weight
18 | 1-cyclopentylethyl-BM123γ | 0.18 mg./kg. of body weight
19 | 1-methyl-2-hydroxypropyl-BM123γ | 0.37 mg./kg. of body weight
20 | 1,2-dimethylbutyl-BM123γ | 0.12 mg./kg. of body weight
21 | 2,4,4-trimethylcyclopentyl-BM123γ | 0.3 mg./kg. of body weight
22 | 1,3,3-trimethylbutyl-BM123γ | 0.18 mg./kg. of body weight

Row | Substance | ED50 (dose required to protect 50% of the mice against E. coli)
23 | 2-phenylcyclohexyl-BM123γ | 0.38 mg./kg. of body weight
24 | 1,5-dimethylhexen(-4-)yl-BM123γ | 0.06 mg./kg. of body weight
25 | 1-(carbethoxymethyl)butyl-BM123γ | 0.75 mg./kg. of body weight
26 | 1-methyl-2-(2-methoxyphenyl)ethyl-BM123γ | 0.7 mg./kg. of body weight
27 | 2-cyclopentylcyclopentyl-BM123γ | 0.37 mg./kg. of body weight
28 | 2,2-dimethylpropyl-BM123γ | 0.18 mg./kg. of body weight
29 | 2-cyclohexenyl-BM123γ | 0.25 mg./kg. of body weight
30 | 1-ethylpropyl-BM123γ | 0.12 mg./kg. of body weight
31 | 1-propylpentyl-BM123γ | 0.39 mg./kg. of body weight
32 | cyclooctyl-BM123γ | 0.18 mg./kg. of body weight
33 | 1,3-dimethylbutyl-BM123γ | < 0.12 mg./kg. of body weight
34 | 5-methoxyl-2-tetralyl-BM123γ | 0.18 mg./kg. of body weight
35 | 1-methyl-2-(3-hydroxy-2-methylpropyl)-BM123γ | 0.18 mg./kg. of body weight
36 | cycloheptyl-BM123γ | 0.3 mg./kg. of body weight
37 | 1-ethylnonyl-BM123γ | 0.38 mg./kg. of body weight
38 | 1-methyl-2-o-[tolylcarbamoylethyl]-BM123γ | 0.25 mg./kg. of body weight
39 | 1,4-dimethylpentyl-BM123γ | 0.12 mg./kg. of body weight
40 | 1-methyl-2-(2-chlorophenyl)ethyl-BM123γ | 0.37 mg./kg. of body weight
41 | 1-methyl-2-cyclopenten(-2-)-yl-ethyl-BM123γ | < 0.12 mg./kg. of body weight
42 | cyclopentyl-BM123γ | 0.25 mg./kg. of body weight
43 | 2-ethylcyclohexyl-BM123γ | 0.19 mg./kg. of body weight
44 | 1-isopropyl-4-methylpentyl-BM123γ | 0.39 mg./kg. of body weight
